Experimental data: publication PMC7317746 (Environmental and Molecular Mutagenesis, 2020)

Columns and labels:
liver cells = assay: Comet assay, liver cells; type: in vivo, rat
male Sprague Dawley rats = assay: Pig‐a assay; type: in vivo, rat
[1] = 1-Month Study, 250 mg/kg/day, Day 29
[2] = 1-Month Study, 500 mg/kg/day, Day 29
[3] = 1-Month Study, 1,000 mg/kg/day, Day 29
[4] = 1-Month Study, 250 mg/kg/day, Day 15
[5] = 1-Month Study, 250 mg/kg/day, Day -1 (pre-treatment)
[6] = 1-Month Study, 500 mg/kg/day, Day 15
[7] = 1-Month Study, 500 mg/kg/day, Day -1 (pre-treatment)
[8] = 1-Month Study, 1,000 mg/kg/day Days 1-29, Day 57 recovery group
[9] = 1-Month Study, 1,000 mg/kg/day, Day 15
[10] = 1-Month Study, 1,000 mg/kg/day, Day -1 (pre-treatment)
[11] = 2-Week Study, 250 mg/kg/day Days 1-15, Day 16
[12] = 2-Week Study, 500 mg/kg/day Days 1-15, Day 16
[13] = 2-Week Study, 1,000 mg/kg/day Days 1-15, Day 16
[14] = 3-Day Study, 500 mg/kg/day Days 1-3, Day 15
[15] = 3-Day Study, 500 mg/kg/day Days 1-3, Day 30
[16] = 3-Day Study, 500 mg/kg/day Days 1-3, Day 45

CC(=O)Nc1ccc(O)cc1 [acetaminophen, Acetaminophen]
Liver % tail intensity mean ± SD (liver cells; [1]): 0.20 ± 0.11% | Liver % tail intensity mean ± SD (liver cells; [2]): 0.18 ± 0.06% | Liver % tail intensity mean ± SD (liver cells; [3]): 0.34 ± 0.25 % | Liver % tail intensity mean ± SD (liver cells; 3-Day Study, 500 mg/kg/day, Day 3): 0.22 ± 0.09% | Liver % tail intensity mean ± SD (liver cells; 3-Day Study, 1,000 mg/kg/day, Day 3): 0.27 ± 0.10% | Liver % tail intensity mean ± SD (liver cells; 3-Day Study, 2,000 mg/kg/day, Day 3): 0.28 ± 0.07 % | Comet endpoint in peripheral blood cells and liver cells (conclusion) (liver cells; ≤1,000 mg/kg/day, up to 29 days): negative | %RETs mean ± SD (male Sprague Dawley rats; [4]): 3.7 ± 0.7% | Number of CD59‐Neg RBCs per 10^6 RBCs mean ± SD (male Sprague Dawley rats; [4]): 0.6 ± 0.4 per 10^6 RBCs | Number of CD59‐Neg RETs per 10^6 RETs mean ± SD (male Sprague Dawley rats; [4]): 1.8 ± 2.8 per 10^6 RETs | %RETs mean ± SD (male Sprague Dawley rats; [1]): 2.9 ± 0.4% | Number of CD59‐Neg RBCs per 10^6 RBCs mean ± SD (male Sprague Dawley rats; [1]): 0.9 ± 0.3 per 10^6 RBCs | Number of CD59‐Neg RETs per 10^6 RETs mean ± SD (male Sprague Dawley rats; [1]): 3.0 ± 2.2 per 10^6 RETs | %RETs mean ± SD (male Sprague Dawley rats; [5]): 5.2 ± 0.6% | Number of CD59‐Neg RBCs per 10^6 RBCs mean ± SD (male Sprague Dawley rats; [5]): 0.7 ± 0.8 per 10^6 RBCs | Number of CD59‐Neg RETs per 10^6 RETs mean ± SD (male Sprague Dawley rats; [5]): 0.6 ± 0.6 per 10^6 RETs | %RETs mean ± SD (male Sprague Dawley rats; [6]): 3.2 ± 0.5% | Number of CD59‐Neg RBCs per 10^6 RBCs mean ± SD (male Sprague Dawley rats; [6]): 0.3 ± 0.2 per 10^6 RBCs | Number of CD59‐Neg RETs per 10^6 RETs mean ± SD (male Sprague Dawley rats; [6]): 1.0 ± 1.0 per 10^6 RETs | %RETs mean ± SD (male Sprague Dawley rats; [2]): 2.0 ± 0.4 % | Number of CD59‐Neg RBCs per 10^6 RBCs mean ± SD (male Sprague Dawley rats; [2]): 0.5 ± 0.1 per 10^6 RBCs | Number of CD59‐Neg RETs per 10^6 RETs mean ± SD (male Sprague Dawley rats; [2]): 1.7 ± 1.9 per 10^6 RETs | %RETs mean ± SD (male Sprague Dawley rats; [7]): 5.5 ± 1.3 % | Number of CD59‐Neg RBCs per 10^6 RBCs mean ± SD (male Sprague Dawley rats; [7]): 0.3 ± 0.1 per 10^6 RBCs | Number of CD59‐Neg RETs per 10^6 RETs mean ± SD (male Sprague Dawley rats; [7]): 0.6 ± 0.7 per 10^6 RETs | %RETs mean ± SD (male Sprague Dawley rats; [8]): 2.8 ± 0.6% | Number of CD59‐Neg RBCs per 10^6 RBCs mean ± SD (male Sprague Dawley rats; [8]): 0.9 ± 0.5 per 10^6 RBCs | Number of CD59‐Neg RETs per 10^6 RETs mean ± SD (male Sprague Dawley rats; [8]): 0.5 ± 0.4 per 10^6 RETs | %RETs mean ± SD (male Sprague Dawley rats; [9]): 2.8 ± 1.4% | Number of CD59‐Neg RBCs per 10^6 RBCs mean ± SD (male Sprague Dawley rats; [9]): 0.6 ± 0.4 per 10^6 RBCs | Number of CD59‐Neg RETs per 10^6 RETs mean ± SD (male Sprague Dawley rats; [9]): 1.6 ± 1.5 per 10^6 RETs | %RETs mean ± SD (male Sprague Dawley rats; [3]): 2.4 ± 0.9% | Number of CD59‐Neg RBCs per 10^6 RBCs mean ± SD (male Sprague Dawley rats; [3]): 1.6 ± 1.6 per 10^6 RBCs | Number of CD59‐Neg RETs per 10^6 RETs mean ± SD (male Sprague Dawley rats; [3]): 4.5 ± 5.9 per 10^6 RETs | %RETs mean ± SD (male Sprague Dawley rats; [10]): 4.6 ± 0.6% | Number of CD59‐Neg RBCs per 10^6 RBCs mean ± SD (male Sprague Dawley rats; [10]): 0.5 ± 0.3 per 10^6 RBCs | Number of CD59‐Neg RETs per 10^6 RETs mean ± SD (male Sprague Dawley rats; [10]): 0.7 ± 0.7 per 10^6 RETs | %RETs mean ± SD (male Sprague Dawley rats; [11]): 2.7 ± 1.0% | Number of CD59‐Neg RBCs per 10^6 RBCs mean ± SD (male Sprague Dawley rats; [11]): 0.7 ± 0.3 per 10^6 RBCs | Number of CD59‐Neg RETs per 10^6 RETs mean ± SD (male Sprague Dawley rats; [11]): 1.4 ± 1.1 per 10^6 RETs | %RETs mean ± SD (male Sprague Dawley rats; [12]): 2.4 ± 0.8 % | Number of CD59‐Neg RBCs per 10^6 RBCs mean ± SD (male Sprague Dawley rats; [12]): 1.1 ± 1.7 per 10^6 RBCs | Number of CD59‐Neg RETs per 10^6 RETs mean ± SD (male Sprague Dawley rats; [12]): 0.4 ± 0.4 per 10^6 RETs | %RETs mean ± SD (male Sprague Dawley rats; [13]): 3.4 ± 0.7% | Number of CD59‐Neg RBCs per 10^6 RBCs mean ± SD (male Sprague Dawley rats; [13]): 0.5 ± 0.3 per 10^6 RBCs | Number of CD59‐Neg RETs per 10^6 RETs mean ± SD (male Sprague Dawley rats; [13]): 1.1 ± 0.9 per 10^6 RETs | %RETs mean ± SD (male Sprague Dawley rats; [14]): 3.6 ± 0.6% | Number of CD59‐Neg RBCs per 10^6 RBCs mean ± SD (male Sprague Dawley rats; [14]): 0.4 ± 0.2 per 10^6 RBCs | Number of CD59‐Neg RETs per 10^6 RETs mean ± SD (male Sprague Dawley rats; [14]): 0.9 ± 0.7 per 10^6 RETs | %RETs mean ± SD (male Sprague Dawley rats; [15]): 3.1 ± 0.2% | Number of CD59‐Neg RBCs per 10^6 RBCs mean ± SD (male Sprague Dawley rats; [15]): 0.5 ± 0.3 per 10^6 RBCs | Number of CD59‐Neg RETs per 10^6 RETs mean ± SD (male Sprague Dawley rats; [15]): 1.2 ± 1.2 per 10^6 RETs | %RETs mean ± SD (male Sprague Dawley rats; [16]): 2.7 ± 0.4% | Number of CD59‐Neg RBCs per 10^6 RBCs mean ± SD (male Sprague Dawley rats; [16]): 0.4 ± 0.2 per 10^6 RBCs | Number of CD59‐Neg RETs per 10^6 RETs mean ± SD (male Sprague Dawley rats; [16]): 0.7 ± 1.3 per 10^6 RETs
